# Laboratory results taken from patent US20090326037A1 (priority 2005, published 2009).
# Tested on: influenza A/Singapore/1/57 virus
# Assay: microbe, parasite or virus in culture
# Format: cell-based
substance,measurement,setting,value
1-methyl-2-(4-methylphenylsulfomethyl-3-carbethoxy-4-dimethylaminomethyl-5-oxy-6-bromindol,Percent of inhibition of OD 490,"A or B 0.3 μg/ml + Zanamivir 0.3 μg, added 2 hours after infection",10%
same,Percent of inhibition of OD 490,"A or B 0.3 μg/ml + Zanamivir 1 μg, added 2 hours after infection",15%
same,Percent of inhibition of OD 490,"A or B 0.3 μg/ml + Zanamivir 3.3 μg, added 2 hours after infection",21%
same,Percent of inhibition of OD 490,"A or B 0.3 μg/ml + Zanamivir 10 μg, added 2 hours after infection",30%
same,Percent of inhibition of OD 490,"A or B 0.3 μg/ml + Zanamivir 33 μg, added 2 hours after infection",40%
same,Percent of inhibition of OD 490,"A or B 0.3 μg/ml alone (Zanamivir 0), added 2 hours after infection",no
same,Percent of inhibition of OD 490,"A or B 1 μg/ml + Zanamivir 0.3 μg, added 2 hours after infection",21%
same,Percent of inhibition of OD 490,"A or B 1 μg/ml + Zanamivir 1 μg, added 2 hours after infection",26%
same,Percent of inhibition of OD 490,"A or B 1 μg/ml + Zanamivir 3.3 μg, added 2 hours after infection",30%
same,Percent of inhibition of OD 490,"A or B 1 μg/ml + Zanamivir 10 μg, added 2 hours after infection",85%
same,Percent of inhibition of OD 490,"A or B 1 μg/ml + Zanamivir 33 μg, added 2 hours after infection",83%
same,Percent of inhibition of OD 490,"A or B 1 μg/ml alone (Zanamivir 0), added 2 hours after infection",no
same,Percent of inhibition of OD 490,"A or B 3 μg/ml + Zanamivir 0.3 μg, added 2 hours after infection",40%
same,Percent of inhibition of OD 490,"A or B 3 μg/ml + Zanamivir 1 μg, added 2 hours after infection",45%
same,Percent of inhibition of OD 490,"A or B 3 μg/ml + Zanamivir 3.3 μg, added 2 hours after infection",80%
same,Percent of inhibition of OD 490,"A or B 3 μg/ml + Zanamivir 10 μg, added 2 hours after infection",90%
same,Percent of inhibition of OD 490,"A or B 3 μg/ml + Zanamivir 33 μg, added 2 hours after infection",87%
same,Percent of inhibition of OD 490,"A or B 3 μg/ml alone (Zanamivir 0), added 2 hours after infection",no
same,Percent of inhibition of OD 490,"A or B 5 μg/ml + Zanamivir 0.3 μg, added 2 hours after infection",52%
same,Percent of inhibition of OD 490,"A or B 5 μg/ml + Zanamivir 1 μg, added 2 hours after infection",80%
same,Percent of inhibition of OD 490,"A or B 5 μg/ml + Zanamivir 3.3 μg, added 2 hours after infection",75%
same,Percent of inhibition of OD 490,"A or B 5 μg/ml + Zanamivir 10 μg, added 2 hours after infection",96%
same,Percent of inhibition of OD 490,"A or B 5 μg/ml + Zanamivir 33 μg, added 2 hours after infection",95%
same,Percent of inhibition of OD 490,"A or B 5 μg/ml alone (Zanamivir 0), added 2 hours after infection",no
same,Percent of inhibition of OD 490,"A or B 10 μg/ml + Zanamivir 0.3 μg, added 2 hours after infection",50%
same,Percent of inhibition of OD 490,"A or B 10 μg/ml + Zanamivir 1 μg, added 2 hours after infection",75%
same,Percent of inhibition of OD 490,"A or B 10 μg/ml + Zanamivir 3.3 μg, added 2 hours after infection",90%
same,Percent of inhibition of OD 490,"A or B 10 μg/ml + Zanamivir 10 μg, added 2 hours after infection","100, 100%"
same,Percent of inhibition of OD 490,"A or B 10 μg/ml + Zanamivir 33 μg, added 2 hours after infection","100, 100%"
same,Percent of inhibition of OD 490,"A or B 10 μg/ml alone (Zanamivir 0), added 2 hours after infection",10%
1-methyl-2-(4-oxyethyl-phenylsulfomethyl)-3-carbethoxy-4-dimethylaminomethyl-5-oxy-6-bromindol,Percent of inhibition of OD 490,"A or C 0.3 μg/ml + Oseltamivir 0.4 μg, added 2 hours after infection",15%
same,Percent of inhibition of OD 490,"A or C 0.3 μg/ml + Oseltamivir 1.2 μg, added 2 hours after infection",16%
same,Percent of inhibition of OD 490,"A or C 0.3 μg/ml + Oseltamivir 4.1 μg, added 2 hours after infection",18%
same,Percent of inhibition of OD 490,"A or C 0.3 μg/ml + Oseltamivir 12.3 μg, added 2 hours after infection",35%
same,Percent of inhibition of OD 490,"A or C 0.3 μg/ml + Oseltamivir 41 μg, added 2 hours after infection",40%
same,Percent of inhibition of OD 490,"A or C 0.3 μg/ml alone (Oseltamivir 0), added 2 hours after infection",no
same,Percent of inhibition of OD 490,"A or C 1 μg/ml + Oseltamivir 0.4 μg, added 2 hours after infection",30%
same,Percent of inhibition of OD 490,"A or C 1 μg/ml + Oseltamivir 1.2 μg, added 2 hours after infection",31%
same,Percent of inhibition of OD 490,"A or C 1 μg/ml + Oseltamivir 4.1 μg, added 2 hours after infection",41%
same,Percent of inhibition of OD 490,"A or C 1 μg/ml + Oseltamivir 12.3 μg, added 2 hours after infection",88%
same,Percent of inhibition of OD 490,"A or C 1 μg/ml + Oseltamivir 41 μg, added 2 hours after infection",90%
same,Percent of inhibition of OD 490,"A or C 1 μg/ml alone (Oseltamivir 0), added 2 hours after infection",no
same,Percent of inhibition of OD 490,"A or C 3 μg/ml + Oseltamivir 0.4 μg, added 2 hours after infection",35%
same,Percent of inhibition of OD 490,"A or C 3 μg/ml + Oseltamivir 1.2 μg, added 2 hours after infection",37%
same,Percent of inhibition of OD 490,"A or C 3 μg/ml + Oseltamivir 4.1 μg, added 2 hours after infection",60%
same,Percent of inhibition of OD 490,"A or C 3 μg/ml + Oseltamivir 12.3 μg, added 2 hours after infection",91%
same,Percent of inhibition of OD 490,"A or C 3 μg/ml + Oseltamivir 41 μg, added 2 hours after infection","100, 100%"
same,Percent of inhibition of OD 490,"A or C 3 μg/ml alone (Oseltamivir 0), added 2 hours after infection",no
same,Percent of inhibition of OD 490,"A or C 5 μg/ml + Oseltamivir 0.4 μg, added 2 hours after infection",50%
same,Percent of inhibition of OD 490,"A or C 5 μg/ml + Oseltamivir 1.2 μg, added 2 hours after infection",40%
same,Percent of inhibition of OD 490,"A or C 5 μg/ml + Oseltamivir 4.1 μg, added 2 hours after infection",96%
same,Percent of inhibition of OD 490,"A or C 5 μg/ml + Oseltamivir 12.3 μg, added 2 hours after infection",96%
same,Percent of inhibition of OD 490,"A or C 5 μg/ml + Oseltamivir 41 μg, added 2 hours after infection","100, 100%"
same,Percent of inhibition of OD 490,"A or C 5 μg/ml alone (Oseltamivir 0), added 2 hours after infection",no
same,Percent of inhibition of OD 490,"A or C 10 μg/ml + Oseltamivir 0.4 μg, added 2 hours after infection",46%
same,Percent of inhibition of OD 490,"A or C 10 μg/ml + Oseltamivir 1.2 μg, added 2 hours after infection",65%
same,Percent of inhibition of OD 490,"A or C 10 μg/ml + Oseltamivir 4.1 μg, added 2 hours after infection",95%
same,Percent of inhibition of OD 490,"A or C 10 μg/ml + Oseltamivir 12.3 μg, added 2 hours after infection",95%
same,Percent of inhibition of OD 490,"A or C 10 μg/ml + Oseltamivir 41 μg, added 2 hours after infection",98%
same,Percent of inhibition of OD 490,"A or C 10 μg/ml alone (Oseltamivir 0), added 2 hours after infection",10%
1-methyl-2-(n-methyl-phenylsulfomethyl)-3-carbethoxy-4-dimethylaminomethyl-5-oxy-6-bromindol,Percent of inhibition of OD 490,"A or D 1 μg/ml + Amantadin 0.3 μg/ml, added 30 min prior to infection",17%
same,Percent of inhibition of OD 490,"A or D 1 μg/ml + Amantadin 1 μg/ml, added 30 min prior to infection",18%
same,Percent of inhibition of OD 490,"A or D 1 μg/ml + Amantadin 5 μg/ml, added 30 min prior to infection",29%
same,Percent of inhibition of OD 490,"A or D 1 μg/ml + Amantadin 10 μg/ml, added 30 min prior to infection",45%
same,Percent of inhibition of OD 490,"A or D 1 μg/ml + Remantadin 0.3 μg/ml, added 30 min prior to infection",18%
same,Percent of inhibition of OD 490,"A or D 1 μg/ml + Remantadin 1 μg/ml, added 30 min prior to infection",20%
same,Percent of inhibition of OD 490,"A or D 1 μg/ml + Remantadin 5 μg/ml, added 30 min prior to infection",36%
same,Percent of inhibition of OD 490,"A or D 1 μg/ml + Remantadin 10 μg/ml, added 30 min prior to infection",42%
same,Percent of inhibition of OD 490,"A or D 1 μg/ml alone (Amantadin 0), added 30 min prior to infection",15%
same,Percent of inhibition of OD 490,"A or D 1 μg/ml alone (Remantadin 0), added 30 min prior to infection",12%
same,Percent of inhibition of OD 490,"A or D 5 μg/ml + Amantadin 0.3 μg/ml, added 30 min prior to infection",38%
same,Percent of inhibition of OD 490,"A or D 5 μg/ml + Amantadin 1 μg/ml, added 30 min prior to infection",41%
same,Percent of inhibition of OD 490,"A or D 5 μg/ml + Amantadin 5 μg/ml, added 30 min prior to infection",53%
same,Percent of inhibition of OD 490,"A or D 5 μg/ml + Amantadin 10 μg/ml, added 30 min prior to infection",70%
same,Percent of inhibition of OD 490,"A or D 5 μg/ml + Remantadin 0.3 μg/ml, added 30 min prior to infection",48%
same,Percent of inhibition of OD 490,"A or D 5 μg/ml + Remantadin 1 μg/ml, added 30 min prior to infection",44%
same,Percent of inhibition of OD 490,"A or D 5 μg/ml + Remantadin 5 μg/ml, added 30 min prior to infection",50%
same,Percent of inhibition of OD 490,"A or D 5 μg/ml + Remantadin 10 μg/ml, added 30 min prior to infection",73%
same,Percent of inhibition of OD 490,"A or D 5 μg/ml alone (Amantadin 0), added 30 min prior to infection",24%
same,Percent of inhibition of OD 490,"A or D 5 μg/ml alone (Remantadin 0), added 30 min prior to infection",20%
same,Percent of inhibition of OD 490,"A or D 10 μg/ml + Amantadin 0.3 μg/ml, added 30 min prior to infection",57%
same,Percent of inhibition of OD 490,"A or D 10 μg/ml + Amantadin 1 μg/ml, added 30 min prior to infection",70%
same,Percent of inhibition of OD 490,"A or D 10 μg/ml + Amantadin 5 μg/ml, added 30 min prior to infection",75%
same,Percent of inhibition of OD 490,"A or D 10 μg/ml + Amantadin 10 μg/ml, added 30 min prior to infection",80%
same,Percent of inhibition of OD 490,"A or D 10 μg/ml + Remantadin 0.3 μg/ml, added 30 min prior to infection",69%
same,Percent of inhibition of OD 490,"A or D 10 μg/ml + Remantadin 1 μg/ml, added 30 min prior to infection",69%
same,Percent of inhibition of OD 490,"A or D 10 μg/ml + Remantadin 5 μg/ml, added 30 min prior to infection",70%
same,Percent of inhibition of OD 490,"A or D 10 μg/ml + Remantadin 10 μg/ml, added 30 min prior to infection",75%
same,Percent of inhibition of OD 490,"A or D 10 μg/ml alone (Amantadin 0), added 30 min prior to infection",40%
same,Percent of inhibition of OD 490,"A or D 10 μg/ml alone (Remantadin 0), added 30 min prior to infection",54%
